Measurements as given in patent US20250289827A1, “MORPHIC FORMS OF A MUTANT BRAF DEGRADER AND METHODS OF MANUFACTURE THEREOF” (C4 THERAPEUTICS, INC., priority 2022, published 2025).
Values joined by “and” are separate entries in the source; they are usually repeats but may differ in a detail not shown here. Equal entries are not always repeated.

Legend:
[1] = Dry grinding simulation experiments; assay type: physicochemical
Description: About 20 mg of Compound 1 Form B was ground manually with a mortar and a pestle for 1, 2 and 5 min. Potential form change, and degree of crystallinity were evaluated by XRPD.

[2] = Stability study for Compound 1 Form B (storage conditions); assay type: physicochemical
[3] = Bulk stability of Compound 1 Form B (1 week stress); assay type: physicochemical
ERK phosphorylation = assay: Inhibition of ERK phosphorylation in A375 cells; assay type: cell-based; details: Homo sapiens, A-375, 24 hr
A375 cells = assay: A375 cell growth inhibition; assay type: cell-based; details: Homo sapiens, A-375, 96 hr
[4] = 25° C. ± 2° C./60% RH ± 5% RH, 3 M
[5] = 25° C. ± 2° C./60% RH ± 5% RH, 6 M
[6] = 40° C. ± 2° C./75% RH ± 5% RH, 3 M
[7] = 40° C. ± 2° C./75% RH ± 5% RH, 6 M
[8] = Solid state, photo (visible light, 1.2 million lux-hrs)

Compound: CCN(C)S(=O)(=O)Nc1ccc(F)c(Oc2ccc3ncn([C@H]4COC5(CCN(C(=O)CC6(O)CCN(c7cc8c(cc7F)c(N7CCC(=O)NC7=O)nn8C)CC6)CC5)C4)c(=O)c3c2)c1C#N [Compound 1 Form B]
- Morphic form stability under dry grinding [1]: excellent morphic form stability
- Comments ([1]; grinding time 1 min): Slight decrease in crystallinity.
- XRPD ([1]; grinding time 1 min): Form B
- Comments ([1]; grinding time 2 min): Slight decrease in crystallinity.
- XRPD ([1]; grinding time 2 min): Form B
- Comments ([1]; grinding time 5 min): Slight decrease in crystallinity.
- XRPD ([1]; grinding time 5 min): Form B
- Appearance ([2]; 5 ± 3° C., 6 M): white solid
- Assay by UPLC (% w/w) ([2]; 5 ± 3° C., 6 M): 97.7% w/w
- Chiral purity by HPLC (% area) ([2]; 5 ± 3° C., 6 M): 99.9% area
- Purity by UPLC (% area) ([2]; 5 ± 3° C., 6 M): 99.0% area
- Related Substances, UPLC (% area), Total Impurities ([2]; 5 ± 3° C., 6 M): 1.0% area
- Water Content by KF (% w/w) ([2]; 5 ± 3° C., 6 M): 1.2% w/w
- XRPD ([2]; 5 ± 3° C., 6 M): Form B
- Water content trend ([2]; 5±3° C., 25° C./60% RH, 40° C./75% RH): increasing trend
- Stability study outcome (appearance, purity, assay, related substance, chiral purity, water content, XRPD) ([2]; 6M, 5±3° C., 25° C./60% RH, 40° C./75% RH): meet the acceptance criteria
- Assay by UPLC (% w/w) [2, 4]: 97.2% w/w
- Chiral purity by HPLC (% area) [2, 4]: 99.9% area
- Purity by UPLC (% area) [2, 4]: 98.9 % area
- Related Substances, UPLC (% area), Total Impurities [2, 4]: 1.1% area
- Water Content by KF (% w/w) [2, 4]: 0.7% w/w
- XRPD [2, 4]: Form B
- Assay by UPLC (% w/w) [2, 5]: 97.8% w/w
- Chiral purity by HPLC (% area) [2, 5]: 99.9% area
- Purity by UPLC (% area) [2, 5]: 99.1 % area
- Related Substances, UPLC (% area), Total Impurities [2, 5]: 0.90% area
- Water Content by KF (% w/w) [2, 5]: 0.9% w/w
- XRPD [2, 5]: Form B
- Assay by UPLC (% w/w) [2, 6]: 92.2% w/w
- Chiral purity by HPLC (% area) [2, 6]: 99.9% area
- Purity by UPLC (% area) [2, 6]: 92.2% area
- Related Substances, UPLC (% area), Total Impurities [2, 6]: 1.2% area
- Water Content by KF (% w/w) [2, 6]: 0.9 % w/w
- XRPD [2, 6]: Form B
- Assay by UPLC (% w/w) [2, 7]: 92.5% w/w
- Chiral purity by HPLC (% area) [2, 7]: 99.9% area
- Purity by UPLC (% area) [2, 7]: 92.5% area
- Related Substances, UPLC (% area), Total Impurities [2, 7]: 1.1% area
- Water Content by KF (% w/w) [2, 7]: 1.0 % w/w
- XRPD [2, 7]: Form B
- Appearance ([2]; Initial): white solid
- Assay by UPLC (% w/w) ([2]; Initial): 99.4% w/w and 97.3% w/w
- Chiral purity by HPLC (% area) ([2]; Initial): 99.8% area
- Purity by UPLC (% area) ([2]; Initial): 98.9% area and 97.3% area
- Related Substances, UPLC (% area), Total Impurities ([2]; Initial): 1.1% area
- Water Content by KF (% w/w) ([2]; Initial): 0.4% w/w
- XRPD ([2]; Initial): Form B
- Bulk (XRPD) crystallinity [3, 8]: Slight decrease in crystallinity
- Color [3, 8]: No change of color
- Purity, Bulk (HPLC) [3, 8]: 96.9%
- Purity, Control (HPLC) ([3]; photo test, control sample): 99.4%

Compound: CCN(C)S(=O)(=O)Nc1ccc(F)c(Oc2ccc3ncn([C@H]4COC5(CCN(C(=O)CC6(O)CCN(c7cc8c(cc7F)c(N7CCC(=O)NC7=O)nn8C)CC6)CC5)C4)c(=O)c3c2)c1C#N [Compound 1, (3R)-3-[6-[2-cyano-3-[[ethyl(methyl)sulfamoyl]amino]-6-fluorophenoxy]-4-oxoquinazolin-3-yl]-8-[2-[1-[3-(2,4-dioxo-1,3-diazinan-1-yl)-5-fluoro-1-methylindazol-6-yl]-4-hydroxypiperidin-4-yl]acetyl]-1-oxa-8-azaspiro[4.5]decane]
- IC50 (ERK phosphorylation): 11 nM
- GI50 (A375 cells): 94 nM
